The text below walks through data of patent US20230303562A1, “PYRAZOLE COMPOUND AND PREPARATION METHOD THEREFOR AND USE THEREOF” (Sichuan Kelun-Biotech Biopharmaceutical Co., Ltd., priority 2020, published 2023).

For data set [1], the target named is TGFβR2 (Homo sapiens (Human), UniProt P37173). Put plainly: In vitro enzymatic activity inhibition test (TGFβR2), ADP-Glo Kinase Detection Kit. It counts as biochemical. The conditions noted are these: MBP substrate, estimated from inhibition at 1000, 100, 10 nM. The method, then: The chemiluminescence signal values were detected after incubation at room temperature for another 30 min.

The target in data set [2] is hERG (Homo sapiens (Human), UniProt Q12809). The experiment in a line: Biochemical hERG inhibition test (Predictor hERG fluorescence polarization kit). The conditions noted are these: competition with Tracer, tested at 10 μM and 1 μM. It counts as binding. The method, then: Kit: Predictor™ hERG fluorescence polarization detection kit (ThermoFisher), the kit contained the following components: positive control compound hERG potassium channel blocker E4031; hERG cell membrane; affinity tracer Tracer; and hERG buffer.
hERG concentration: 1×; Tracer concentration: 1 nM; incubation time: 2 h; BMG PHERAstar FS FP.
The test was carried out according to the kit instructions, and the steps were as follows:
Positive control group: 30 μM positive control compound E4031 was used to replace the test compound, and the experimental method was the same as that of the test group.
Blank control group: hERG buffer was used to replace the test compound without the addition of hERG cell membrane, and the experimental method was the same as that of the test group.
According to the data ratio, the percent inhibition rates (%) of the compounds of the present invention to hERG at different concentrations were calculated, and the ranges of the half inhibitory concentration (IC50) of the compounds were determined.

Data set [3] deals with TGFβR1 (Homo sapiens (Human), UniProt P36897). The experiment in a line: In vitro enzymatic activity inhibition test (TGFβR1), ADP-Glo Kinase Detection Kit. Format: biochemical. The note with it: estimated from inhibition at 1000, 100, 10 nM. Here is the method:
Experimental method: According to the instructions of ADP-Glo™ Kinase Detection Kit (Promega), the inhibitory effect of the compounds of the present invention on the enzymatic activity of TGFβR1 was determined, and the steps were as follows:
TGFβR1 enzyme were pre-incubated with different concentrations of test compounds (1000 nM, 100 nM, 10 nM) at 30° C. for 30 min, TGFβR1 peptide and adenosine triphosphate (ATP) were added to initiate the reaction. The incubation was performed at 30° C. for 3 h, followed by an addition of ADP-Glo™ reagent and incubated at room temperature for 90 min, kinase detection reagent was then added. Chemiluminescence signal values were detected after incubation at room temperature for another 30 min. Taking the solvent group (DMSO) as the negative control and the buffer group (without TGFβR1 enzyme) as the blank control, the percent inhibition rates of different concentrations of compounds were calculated according to the following formula: […]
When the percent inhibition rate was between 30% and 80%, the median inhibitory concentration (IC50) or range of the compound was calculated according to the following formula:
IC50=X×(1−percent inhibition rate (%))/percent inhibition rate (%), wherein X is the concentration of the compound at which the inhibition rate is between 30% and 80%.

The nature of data set [4]: Pharmacokinetics (PK) study in Balb/c mice. Format: in vivo. The conditions noted are these: female Balb/c mice; for F (bioavailability) / bioavailability: PO 10 mg/kg compared with IV 1 mg/kg; for bioavailability: mouse, read-out: F (bioavailability). The method, then:
The example compounds were administered to female Balb/c mice via intravenous injection (IV) and gastric perfusion (PO), respectively, and their pharmacokinetic properties were investigated. The administered doses for IV and PO were 1 mg/kg and 10 mg/kg, respectively. The solvent for IV was 5% DMSO+5% Solutol (15-hydroxystearic acid polyethylene glycol ester)+90% normal saline, the solvent for PO was 0.5% MC ([…] methylcellulose). Whole blood samples were collected at various time points after IV and PO administration, and subjected to EDTA-K2 anticoagulation before test.
Whole blood samples were processed by precipitating proteins and then subjected to LC-MS/MS analysis. The pharmacokinetic parameters were calculated by the non-compartmental model using WinNonlin 6.3 software, and the results were shown in Table 6 below.

Chain of TGFβR1 (P36897 34-503): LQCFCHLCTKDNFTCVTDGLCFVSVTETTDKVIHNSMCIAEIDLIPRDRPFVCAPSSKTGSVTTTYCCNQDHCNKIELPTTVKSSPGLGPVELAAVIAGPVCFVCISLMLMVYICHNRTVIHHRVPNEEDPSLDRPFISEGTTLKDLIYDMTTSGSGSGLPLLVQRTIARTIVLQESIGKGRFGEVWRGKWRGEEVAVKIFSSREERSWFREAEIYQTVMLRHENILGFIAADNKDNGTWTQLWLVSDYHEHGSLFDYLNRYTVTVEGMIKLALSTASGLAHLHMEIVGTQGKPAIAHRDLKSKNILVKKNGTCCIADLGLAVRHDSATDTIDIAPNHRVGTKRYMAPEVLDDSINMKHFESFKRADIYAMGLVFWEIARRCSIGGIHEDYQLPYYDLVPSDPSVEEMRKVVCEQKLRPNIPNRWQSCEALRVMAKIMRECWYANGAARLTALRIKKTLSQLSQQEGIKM
Chain of TGFβR2 (P37173 23-567): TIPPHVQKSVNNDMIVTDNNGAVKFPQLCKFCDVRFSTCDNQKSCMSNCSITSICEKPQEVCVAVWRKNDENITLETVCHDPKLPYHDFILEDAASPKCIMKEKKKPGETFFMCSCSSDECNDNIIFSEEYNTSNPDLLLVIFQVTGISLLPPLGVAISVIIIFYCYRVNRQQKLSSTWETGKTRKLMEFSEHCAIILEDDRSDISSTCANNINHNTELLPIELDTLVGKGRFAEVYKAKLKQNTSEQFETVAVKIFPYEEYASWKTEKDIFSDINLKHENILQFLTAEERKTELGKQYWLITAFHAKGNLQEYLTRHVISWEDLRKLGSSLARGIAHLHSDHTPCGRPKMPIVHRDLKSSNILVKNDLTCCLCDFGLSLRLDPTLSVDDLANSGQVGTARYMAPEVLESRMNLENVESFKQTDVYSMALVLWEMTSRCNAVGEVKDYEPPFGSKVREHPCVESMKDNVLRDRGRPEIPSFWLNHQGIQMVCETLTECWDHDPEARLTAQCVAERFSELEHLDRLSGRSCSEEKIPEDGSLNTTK
Chain of hERG (Q12809 whole entry): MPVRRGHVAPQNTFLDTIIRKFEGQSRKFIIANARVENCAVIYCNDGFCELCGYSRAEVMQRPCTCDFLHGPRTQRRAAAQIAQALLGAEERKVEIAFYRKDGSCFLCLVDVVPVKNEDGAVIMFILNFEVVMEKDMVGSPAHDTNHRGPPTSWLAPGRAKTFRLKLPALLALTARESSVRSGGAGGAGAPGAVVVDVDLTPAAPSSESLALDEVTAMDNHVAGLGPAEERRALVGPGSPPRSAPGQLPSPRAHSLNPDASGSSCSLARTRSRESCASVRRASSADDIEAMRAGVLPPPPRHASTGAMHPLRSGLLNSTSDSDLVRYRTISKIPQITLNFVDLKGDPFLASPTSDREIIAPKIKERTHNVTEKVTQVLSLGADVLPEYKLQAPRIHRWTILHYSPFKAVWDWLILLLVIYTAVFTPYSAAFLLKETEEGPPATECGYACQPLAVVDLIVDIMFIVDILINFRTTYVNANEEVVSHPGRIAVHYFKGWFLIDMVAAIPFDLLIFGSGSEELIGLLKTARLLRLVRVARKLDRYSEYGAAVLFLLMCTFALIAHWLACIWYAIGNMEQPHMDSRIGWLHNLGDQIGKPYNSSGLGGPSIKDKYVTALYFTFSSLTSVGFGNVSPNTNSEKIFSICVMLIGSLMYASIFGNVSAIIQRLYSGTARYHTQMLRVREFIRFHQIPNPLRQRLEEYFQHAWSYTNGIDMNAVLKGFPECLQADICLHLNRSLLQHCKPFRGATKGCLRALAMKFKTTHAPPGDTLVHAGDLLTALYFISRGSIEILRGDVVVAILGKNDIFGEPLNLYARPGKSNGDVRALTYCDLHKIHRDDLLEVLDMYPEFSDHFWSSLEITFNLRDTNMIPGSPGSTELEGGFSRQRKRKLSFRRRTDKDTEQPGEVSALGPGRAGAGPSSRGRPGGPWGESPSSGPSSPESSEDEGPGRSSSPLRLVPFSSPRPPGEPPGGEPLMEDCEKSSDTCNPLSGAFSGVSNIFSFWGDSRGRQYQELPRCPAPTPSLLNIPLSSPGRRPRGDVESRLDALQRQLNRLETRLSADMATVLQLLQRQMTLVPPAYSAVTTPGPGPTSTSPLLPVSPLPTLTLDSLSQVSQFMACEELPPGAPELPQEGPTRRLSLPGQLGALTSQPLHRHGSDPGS

Take `Cc1cccc(-n2nccc2-c2ccc3ncsc3c2)n1` [Example 1, 6-(1-(6-methylpyridin-2-yl)-1H-pyrazol-5-yl)benzo[d]thiazole]: the IC50 in data set [1] was greater than 1000 nM; in data set [2], greater than 10 µM; in data set [3] it was 48.6 ± 18.6 nM.

With `Cc1cccc(-n2nc3c(c2-c2ccn4ncc(C(N)=O)c4c2)CCC3)n1` [Example 6, 5-[2-(6-methylpyridin-2-yl)-2,4,5,6-tetrahydrocyclopenteno[c]pyrazol-3-yl]pyrazolo[1,5-a]pyridine-3-carboxamide], the AUClast is 578 ± 4 ng·h/mL in data set [4] (IV, 1 mg/kg, whole blood) and 3586 ± 563 ng·h/mL in data set [4] (PO, 10 mg/kg, whole blood). The compound also had a Cl in data set [4] (IV, 1 mg/kg, whole blood) of 28.4 ± 0.3 mL/min/kg. Moreover, the Cmax is given as 1163 ± 58 ng/mL in data set [4] (IV, 1 mg/kg, whole blood) and 7440 ± 226 ng/mL in data set [4] (PO, 10 mg/kg, whole blood). Moreover, the “F (bioavailability)” value is recorded as 61.4 ± 9.5% in data set [4] and 61.4% in data set [4] (listed as Example VI). In addition, the T1/2 in data set [4] (PO, 10 mg/kg, whole blood) was found to be 27.6 ± 11.4 min; in data set [4] (PO, 10 mg/kg, whole blood, listed as Example VI), 27.6 min.

In data set [4] (PO, 10 mg/kg, whole blood), `CNc1cc(-c2ccn3ncc(C(N)=O)c3c2)n(-c2cccc(C)n2)n1` [Example 8, 5-(3-(methylamino)-1-(6-methylpyridin-2-yl)-1H-pyrazol-5-yl)pyrazolo[1,5-a]pyridine-3-carboxamide] gave a T1/2 of 108 ± 21 min. Also, the bioavailability in data set [4] (whole blood) turned out to be 98.1%.

For `Cc1cccc(-n2nccc2-c2ccn3ncc(C(N)=O)c3c2)n1` [Example 12, 5-(1-(6-methylpyridin-2-yl)-1H-pyrazol-5-yl)pyrazolo[1,5-a]pyridine-3-carboxamide], the T1/2 in data set [4] (PO, 10 mg/kg, whole blood) was 31.2 ± 10.8 min. Also, the bioavailability in data set [4] (whole blood) amounted to 52.1%.
